Laboratory results reported in US9822074B2, “Dihydropyridinone MGAT2 inhibitors” (BRISTOL-MYERS SQUIBB COMPANY, priority 2013, dated 2017).

Biological target: human MGAT2 (Homo sapiens (Human), UniProt Q3SYC2)
Test: MGAT LCMS Assay (MGAT2 in vitro enzyme assay)
Assay type: biochemical
Details: Human MGAT-2 membranes expressed in Sf9 cells; 100 μM 2-oleoylglycerol, 15 μM oleoyl-Coenzyme A; read-out: h-MGAT LCMS IC50
Protocol: The MGAT enzyme reactions were performed in Corning FALCON® 96-well Polypropylene plates, in a total volume of 60 μL of 50 mM Potassium Phosphate buffer pH 7.4, containing a final concentration of 100 μM 2-oleoylglycerol, 15 μM oleoyl-Coenzyme A and 0.0013 μg/μL Human or Mouse MGAT-2 or 0.0026 μg/μL Rat recombinant MGAT-2 membranes expressed in Sf9 cells. Assay plates were run through a fully automated robotics system and shaken for 5 seconds every minute for a total 10 minutes. The reactions were then quenched with 120 μL of ice cold methanol containing 1 μg/mL 1,2-distearoyl-rac-glycerol as the internal standard. Plates were shaken for 2 minutes and spun down to remove protein precipitation. After the spin, samples were transferred to LC/MS compatible PCR plates. For LC/MS analysis, a ThermoFisher Surveyor pump, utilizing a Waters Symmetry C8, 50×2.1 mm column, was used for the chromatography of enzyme products. The buffer system consists of 0.1% formic acid in water with a mobile phase consisting 0.1% formic acid in methanol. The shallow gradient is 90-100% mobile phase in 0.2 min with a total run time of 2.3 min. The first 0.5 minutes of each injection was diverted to waste to eliminate the presence of Phosphate buffer in the enzymatic reaction. The column was run at 0.6 mL/min and a temperature of 65° C. […]

Chain of human MGAT2 (Q3SYC2 whole entry): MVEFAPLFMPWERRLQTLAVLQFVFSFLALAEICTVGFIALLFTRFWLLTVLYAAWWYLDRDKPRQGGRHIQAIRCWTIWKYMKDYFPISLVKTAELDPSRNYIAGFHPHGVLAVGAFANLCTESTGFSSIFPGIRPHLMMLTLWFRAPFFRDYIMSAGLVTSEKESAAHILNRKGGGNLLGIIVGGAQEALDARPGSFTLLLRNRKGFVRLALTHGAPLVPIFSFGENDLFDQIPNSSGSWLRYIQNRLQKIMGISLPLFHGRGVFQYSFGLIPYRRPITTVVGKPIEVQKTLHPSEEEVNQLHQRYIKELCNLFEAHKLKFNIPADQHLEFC

IC50 [nM]	Compound
16	O=C1N[C@@](c2ccc(CCCCC(F)(F)F)cc2F)(C(F)(F)F)CC(c2ccn(C3CCC3)n2)=C1C(=O)NS(=O)(=O)C1CC1 [Example 50, (S)-4-(1-cyclobutyl-1H-pyrazol-3-yl)-N-(cyclopropylsulfonyl)-6-(2-fluoro-4-(5,5,5-trifluoropentyl)phenyl)-2-oxo-6-(trifluoromethyl)-1,2,5,6-tetrahydropyridine-3-carboxamide]
35	CC(C)n1ccc(C2=C(C(=O)NS(=O)(=O)C3CC3)C(=O)N[C@@](c3ccc(CCCCC(F)(F)F)cc3F)(C(F)(F)F)C2)n1 [Example 49, (S)-N-(cyclopropylsulfonyl)-6-(2-fluoro-4-(5,5,5-trifluoropentyl)phenyl)-4-(1-isopropyl-1H-pyrazol-3-yl)-2-oxo-6-(trifluoromethyl)-1,2,5,6-tetrahydropyridine-3-carboxamide]
